In ChEMBL document CHEMBL4619828, “Discovery of Potent and Orally Bioavailable Small Molecule Antagonists of Toll-like Receptors 7/8/9 (TLR7/8/9)” (ACS Med Chem Lett, 2020):

Molecular target: T1, Toll-like receptor 7 (Mus musculus, UniProt P58681)
T1 sequence (P58681 whole entry): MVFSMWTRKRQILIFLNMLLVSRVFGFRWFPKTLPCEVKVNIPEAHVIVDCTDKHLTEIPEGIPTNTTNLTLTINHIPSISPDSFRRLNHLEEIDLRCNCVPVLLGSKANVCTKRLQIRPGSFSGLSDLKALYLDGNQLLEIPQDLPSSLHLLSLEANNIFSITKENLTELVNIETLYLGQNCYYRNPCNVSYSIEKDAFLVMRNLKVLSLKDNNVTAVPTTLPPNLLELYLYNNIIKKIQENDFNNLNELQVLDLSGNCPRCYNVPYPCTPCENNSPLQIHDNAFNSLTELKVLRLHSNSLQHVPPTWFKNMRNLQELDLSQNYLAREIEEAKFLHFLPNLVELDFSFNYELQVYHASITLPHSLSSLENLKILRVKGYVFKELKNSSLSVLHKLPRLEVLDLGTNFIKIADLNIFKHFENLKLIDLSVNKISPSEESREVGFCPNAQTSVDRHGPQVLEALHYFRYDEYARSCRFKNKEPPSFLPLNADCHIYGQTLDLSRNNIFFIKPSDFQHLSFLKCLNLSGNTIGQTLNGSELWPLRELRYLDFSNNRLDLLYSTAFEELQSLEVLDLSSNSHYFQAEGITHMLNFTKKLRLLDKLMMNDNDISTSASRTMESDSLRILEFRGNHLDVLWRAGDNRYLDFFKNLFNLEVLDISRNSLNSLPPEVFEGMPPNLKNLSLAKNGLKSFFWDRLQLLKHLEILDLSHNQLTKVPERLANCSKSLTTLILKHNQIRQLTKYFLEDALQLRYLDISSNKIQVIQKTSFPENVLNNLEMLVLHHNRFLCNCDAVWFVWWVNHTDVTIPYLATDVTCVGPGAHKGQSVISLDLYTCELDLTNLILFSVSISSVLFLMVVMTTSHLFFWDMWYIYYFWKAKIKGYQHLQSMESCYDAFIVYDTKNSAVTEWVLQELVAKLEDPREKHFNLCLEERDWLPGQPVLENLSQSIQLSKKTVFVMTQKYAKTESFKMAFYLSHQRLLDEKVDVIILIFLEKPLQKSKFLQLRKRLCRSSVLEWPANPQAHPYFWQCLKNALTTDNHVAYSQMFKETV
Experiment: Antagonist activity at TLR7 in mouse whole blood cells assessed as inhibition of gardiquimod induced IL-6 production by ELISA
Type: cell-based

- IC50: 43 nM
SMILES: CNCCN1CCC(c2ccc3[nH]c(-c4ccc(OC)c(OC)c4)c(C(C)C)c3c2)CC1
